The experiment can be described thus: Solvolytic stability of compound was measured relative to p-hydroxyphenethyl bromide. Format: functional, Rattus norvegicus.

`C[C@]12CC[C@@H]3c4ccc(O)cc4CC[C@H]3[C@@H]1C[C@@H](Br)[C@@H]2O` registered a 1/krel of 1276.
The result for `C[C@]12CC[C@@H]3c4ccc(O)cc4CC[C@H]3[C@@H]1C[C@@H](CBr)C2O` (some centres not stated) reads 451.

For the origin of these results see ChEMBL document CHEMBL1121966, “(2R*,3S*)-1-[125I]Iodo-2,3-bis(4-hydroxyphenyl)pentane ([125I]iodonorhexestrol) and (2R*,3S*)-1-[77Br]Bromo-2,3-bis(4-hydroxyphenyl)pentane ([77Br]bromonorhexestrol), two gamma-emitting estrogens that show receptor-mediated uptake by target tissues in vivo” (1982).
